Measurements as given in US20210255205A1, “COMPOSITIONS AND METHODS FOR TREATING METABOLIC DISEASE” (THE REGENTS OF THE UNIVERSITY OF CALIFORNIA, priority 2018, published 2021).

Key:
[1] = test system: ASTER domain from Aster-B; test: 22-NBD-cholesterol binding competition with sterols, Aster-B; conditions: competitor 10 μM
Procedure: FIG. 1E: Aster-B334-562 (1-10 μM) was titrated with 10-3000 nM 22-NBD-cholesterol in PBS and fluorescent ligand-binding assays were performed. […] FIG. 1G: Aster-B334-562 was titrated with 22-NBD-cholesterol in the presence of vehicle, estradiol, or various hydroxycholesterol (HC) sterol competitors as indicated (10 μM). Results values are means±SD.
Fluorescent sterol binding assays were carried out as previously described (Petrescu et al., 2001; Wei et al., 2016) in 384-well black flat-bottom plates and equilibrated at room temperature for 1 hour. Measurements were made using a CLARIOstar (BMG LABTECH) microplate reader. The NBD fluorophore was excited with 1(ex)=470 nm and 1(em)=525 and plotted using Prism software. Dissociation constants (KD) were determined by nonlinear regression analysis of dose-response curves.
Aster-A (FIG. 15A), B (FIG. 15B) and C (FIG. 15C) was titrated with 22-NBD-cholesterol in the presence of vehicle or various HC sterol competitors as indicated (3 μM). […] Results values are means±SD.

3T3-L1 cells [2] = test: Aster-A ASO knockdown, SREBP-2 pathway and gene/protein expression; format: cell-based, murine
Procedure: FIG. 13A: Immunoblot analysis of membrane (top) and nuclear (bottom) protein levels in 3T3-L1 cells treated for 48 h with control or Aster-A-specific ASO and then for the indicated times with cyclodextrin-cholesterol. Calnexin was used as a membrane loading control and Lamin A/C as a nuclear loading control. FIG. 13B: Real-time PCR analysis of gene expression in 3T3-L1 cells treated for 48 h with control or Aster-A-specific ASO and then for the indicated times with cyclodextrin-cholesterol. ***p<0.001. FIG. 13C: Real-time PCR analysis of Abca1 expression in 3T3-L1 cells treated for 48 h with control or Aster-A-specific ASO and then for the indicated times with cyclodextrin-cholesterol. **p<0.01; ***p<0.001. FIG. 13D: Time course of cholesteryl ester formation in 3T3-L1 fibroblasts treated with control or Aster-A-specific ASO for 48 h. Cells were incubated with [^3H]oleate for the indicated time, CE was isolated by TLC, and the incorporation of label into CE quantified by scintillation counting and normalized to protein (mg). *p<0.05; ***p<0.001. FIG. 13E: Expression levels of the indicated genes in adrenal glands from WT and Aster-B KO mice (mean±SEM; N=6-8 per group). Statistical analysis was performed using Student's t-test. Values are means±SEM. *p<0.05; **p<0.01; ***p<0.001; ****p<0.0001. FIG. 13F: Immunoblot analysis of membrane (top) and nuclear (bottom) protein levels in adrenals from WT and Aster-B KO mice (n=5). Calnexin was used as a membrane loading control and Lamin A/C as a nuclear loading control. FIG. 13G: Serum cholesterol levels in WT and Aster-B KO mice that were fasting for five h (mean±SEM; N=6 per group). FIG. 13H: Serum corticosterone levels measured by ELISA in WT and Aster-B KO mice that were fed ad-lib or fasted overnight (˜16 hours). N=4 per group. Statistical analysis was performed using Student's t-test. Values are mean±SEM. *p<0.05; **p<0.01; ***p<0.001; ****p<0.0001.
Generation 2.5 constrained ethyl ASOs were synthesized as described previously (Seth et al., 2009). For in vitro knockdown studies, control or Aster-A ASO ([…] (SEQ ID NO: 13)) was used. Undifferentiated murine 3T3-L1 cells were plated in 10% FBS DMEM on Day 0. On Day 1 cells were washed and supplemented with 1% LPDS. Cells were then transfected with ASOs using Dharmafect 1 reagent per the manufacturer's recommendations for knockdown studies (Dharmacon, 50 nM final concentration). On Day 2, the medium was changed to fresh DMEM with 1% LPDS, simvastatin (5 μM) and mevalonate (50 μM). On Day 3 cells were treated as described in FIG. 7A and samples were collected. The rate of incorporation of [^3H]oleate into cholesteryl [^3H]oleate was performed on Day 3 as previously described (Goldstein et al., 1983).
The consequence of loss of Aster function for sterol movement from the PM to the ER in cultured cells was investigated. Since Aster-B expression is minimal in most cultured cell lines, knockdown Aster-A expression, which is abundant 3T3-L1 cells, was chosen. When ER cholesterol levels rise, cells respond first by suppressing SREBP-2 cleavage (thereby blocking sterol synthesis) and second by activating ACAT-dependent CE synthesis. Cholesterol movement to the ER following exogenous delivery was assessed by measuring two endpoints: 1. the activity of the SREBP-2 pathway and 2. the formation of cholesterol esters. […] The fact that some suppression of the SREBP-2 pathway at later time points was still observed even with Aster-A ASO was not unexpected, since vesicular sterol transport pathways were presumably still operative.

3T3-L1 cells [3] = test: cholesteryl ester formation from [^3H]oleate after Aster-A ASO; format: cell-based, murine
Procedure: FIG. 13A: Immunoblot analysis of membrane (top) and nuclear (bottom) protein levels in 3T3-L1 cells treated for 48 h with control or Aster-A-specific ASO and then for the indicated times with cyclodextrin-cholesterol. Calnexin was used as a membrane loading control and Lamin A/C as a nuclear loading control. FIG. 13B: Real-time PCR analysis of gene expression in 3T3-L1 cells treated for 48 h with control or Aster-A-specific ASO and then for the indicated times with cyclodextrin-cholesterol. ***p<0.001. FIG. 13C: Real-time PCR analysis of Abca1 expression in 3T3-L1 cells treated for 48 h with control or Aster-A-specific ASO and then for the indicated times with cyclodextrin-cholesterol. **p<0.01; ***p<0.001. […] Cells were incubated with [^3H]oleate for the indicated time, CE was isolated by TLC, and the incorporation of label into CE quantified by scintillation counting and normalized to protein (mg). *p<0.05; ***p<0.001. […] FIG. 13H: Serum corticosterone levels measured by ELISA in WT and Aster-B KO mice that were fed ad-lib or fasted overnight (˜16 hours). […]
To assess the effects of Aster deficiency on CE production, cells were incubated in the presence of [^3H]oleate, treated with cyclodextrin-cholesterol complexes, and the incorporation of label into CE was quantified. […]

Aster-B GRAM domain = target: T1, Aster-B GRAM domain (Mus musculus, UniProt Q80TI0); test: protein-lipid overlay (PIP Strips); format: binding; conditions: lipid strip, 100 pmol lipid per spot
T1 construct: B GRAM (Aster-B1-337) was conducted using PIP Strips (Echelon Biosciences); made in house; host or cells: Sf9 insect cells
T1 sequence (Q80TI0 41-377 limits assumed): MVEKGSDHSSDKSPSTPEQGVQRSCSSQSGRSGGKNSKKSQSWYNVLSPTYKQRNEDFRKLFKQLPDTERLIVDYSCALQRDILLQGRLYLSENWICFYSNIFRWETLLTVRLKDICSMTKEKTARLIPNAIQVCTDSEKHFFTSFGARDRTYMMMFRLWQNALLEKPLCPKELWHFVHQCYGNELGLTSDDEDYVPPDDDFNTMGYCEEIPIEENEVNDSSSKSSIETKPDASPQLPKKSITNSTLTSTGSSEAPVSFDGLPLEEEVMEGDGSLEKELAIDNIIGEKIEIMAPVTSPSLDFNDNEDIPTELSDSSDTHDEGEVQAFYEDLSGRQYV
Procedure: FIG. 9A: Protein-lipid overlay over purified mouse Aster-B GRAM domain with various phospholipid species. PA and PS correspond to phosphatidic acid and phosphatidylserine, respectively. FIG. 9A discloses “6xHis” as SEQ ID NO: 11. FIG. 9B: Purified Aster-B GRAM domain was incubated with sucrose-loaded heavy liposomes containing Dansyl-PE and 80-85% PC or 80-85% PS+/−5% Cholesterol. Liposomes were sedimented, washed, and analyzed by immunoblotting for associated Aster-B Gram protein (anti-His antibody). FIG. 9C: Localization of full-length and B ΔGRAM Aster-B-GFP constructs with plasma membrane (CellMask stain) expressed in HeLa cells in the presence or absence of cholesterol loading imaged by live cell confocal microscopy. […] FIG. 9E: Quantification of Aster-B PH-EGFP intensity in the TIRF plane upon cholesterol loading (left panel; n=2-3 cells, error bars+/−SD). […] TIRF videos recorded 5 slices (slices 3-5 were used to calculate FO) before cholesterol addition. […]
The Aster proteins contain an N-terminal GRAM domain, a structural motif related to the pleckstrin homology domain that is found in glucosyltransferases, Rab-like GTPase activators, myotubularins, and other membrane-associated proteins. […] Given that phosphatidylserine is highly enriched in the inner leaflet of the PM, it was further determined if the Aster-B GRAM domain was associated with phosphatidylserine-containing liposomes.

[4] = target: ASTER domains from Aster-A, -B, and -C; test: fluorescent NBD-cholesterol binding assay; design: species or system mouse; conditions: NBD-cholesterol 10-3,000 nM, ASTER-domain concentration constant; fit to a single exponential; average over the ASTER domains
Procedure: For binding and transfer studies Aster domains (Aster-A261-576, Aster-B224-560, Aster-C206-528) were expressed by baculovirus in Sf-9 insect cells with an N-terminal FLAG tag and a C-terminal 6× His Tag (“6× His Tag” disclosed as SEQ ID NO: 11). Proteins were expressed with P3 baculovirus for 48 hours at 27° C. Cells were recovered by centrifugation, lysed by sonication. Insoluble material was pelleted at 16,000×g for 40 minutes. Soluble protein was first purified using a Ni-NTA column (Qiagen, 30210) and eluted with 250 mM imidazole PBS buffer after extensive washing. Following dialysis proteins were purified using FLAG M2 affinity gel (Sigma A2220) columns and eluted with 100 μg/mL 1× FLAG peptide after washing for ten column volumes. Proteins were then either dialyzed to remove the FLAG peptide or purified further by size exclusion chromatography.
Fluorescent sterol binding assays were carried out as previously described (Petrescu et al., 2001; Wei et al., 2016) in 384-well black flat-bottom plates and equilibrated at room temperature for 1 hour. Measurements were made using a CLARIOstar (BMG LABTECH) microplate reader. The NBD fluorophore was excited with 1(ex)=470 nm and 1(em)=525 and plotted using Prism software. Dissociation constants (KD) were determined by nonlinear regression analysis of dose-response curves. […]

Gramd1b = Gramd1b gene expression by real-time PCR in macrophages; format: cell-based; conditions: wild-type (WT) but not LXR-null mouse macrophages; 1 μM, 16 h
From the text: Values are means±SEM. Results are representative of three independent experiments. […] Input (Ctrl) served as a control for LXR enrichment. […] FIG. 1D: […] Values are means±SEM. FIG. 1E: […] FIG. 1F: […] Results values are means±SD. FIG. 1G: […] Results values are means±SD. FIG. 1H: […] Values are means±SEM. Total RNA was isolated using TRIzol reagent (Invitrogen) and reverse transcribed with the iScript cDNA synthesis kit (Biorad). cDNA was quantified by real-time PCR using SYBR Green Master Mix (Diagenode) on an ABI 7900 instrument. Gene expression levels were determined by using a standard curve. Each gene was normalized to the housekeeping gene 36B4 and was analyzed in duplicate. Primers used for real-time PCR are available upon request. […] Gramd1b was induced by a synthetic LXR agonist in wild-type (WT) but not LXR-null mouse macrophages (FIG. 1A). […] Gramd1b belongs to a family of highly-conserved genes, which have been designated Gramd1a, -b, and -c in databases. One-to-one orthologs of Gramd1b are present in all vertebrate classes (FIG. 2A). The predicted amino acid sequence of the human protein is 78% identical to that from Oreochromis niloticus (nile tilapia). These genes have not previously been characterized; their structures are incorrectly annotated in databases; and the function of their protein products is unknown. […] The protein products are referred to as Aster-A, -B, and -C.

Molecule: CC(C)CC[C@@H](O)[C@@H](C)[C@H]1CC[C@H]2[C@@H]3CC=C4C[C@@H](O)CC[C@]4(C)[C@H]3CC[C@]12C [22R-HC, 22-R-hydroxycholesterol]
- inhibition of binding of NBD-cholesterol to the ASTER domain from Aster-B [1]: inhibited

Molecule: Aster-A-specific ASO: Generation 2.5 constrained ethyl ASO, GTGGAATTTATTCAGG (SEQ ID NO: 13) (Generation 2.5 constrained ethyl (cEt) ASO, modification pattern not given here)
- Gramd1a expression (3T3-L1 cells [2]; ASO 50 nM, 48 h): nearly abolished
- LDLR protein levels (3T3-L1 cells [2]; ASO 48 h): increased
- SREBP-2 processing (3T3-L1 cells [2]; ASO 48 h): induction
- expression of SREBP-2 target genes, including Hmcgr, and Hmgcs (3T3-L1 cells [2]; ASO 48 h): increased
- ability of exogenously added cyclodextrin-cholesterol to suppress SREBP-2 processing (3T3-L1 cells [2]; Aster-A silenced cells): clearly delayed
- expression of Abca1 (protein and mRNA) (3T3-L1 cells [2]; absence of Aster-A): reciprocally reduced
- rate at which cholesterol delivered to the PM was incorporated into CE (3T3-L1 cells [3]; [^3H]oleate, cyclodextrin-cholesterol): markedly slower
- amount of CE formed relative to control cells (3T3-L1 cells [3]; two hours after cholesterol addition): less than 25%

Molecule: CC(C)CCC[C@@H](C)[C@H]1CC[C@H]2[C@@H]3CC=C4C[C@@H](O)CC[C@]4(C)[C@H]3CC[C@]12C [cholesterol]
- inhibition of binding of NBD-cholesterol to the ASTER domain from Aster-B [1]: inhibited

Molecule: phosphatidic acid [phosphatidic acid (PA)]
- interaction with purified Aster-B GRAM domain (Aster-B GRAM domain): interacted strongly

Molecule: C[C@H](CCCC(C)(C)O)[C@H]1CC[C@H]2[C@@H]3CC=C4C[C@@H](O)CC[C@]4(C)[C@H]3CC[C@]12C [25-HC, 25-hydroxycholesterol]
- inhibition of binding of NBD-cholesterol to the ASTER domain from Aster-B [1]: inhibited

Molecule: CC(C)CCC[C@](C)(O)[C@H]1CC[C@H]2[C@@H]3CC=C4C[C@@H](O)CC[C@]4(C)[C@H]3CC[C@@]21C [20α-HC, 20α-hydroxycholesterol]
- inhibition of binding of NBD-cholesterol to the ASTER domain from Aster-B [1]: inhibited

Molecule: CC(C)CC[C@H](O)[C@@H](C)[C@H]1CC[C@H]2[C@@H]3CC=C4C[C@@H](O)CC[C@]4(C)[C@H]3CC[C@]12C [22S-hydroxycholesterol]
- inhibition of binding of NBD-cholesterol to the ASTER domain from Aster-B [1]: comparatively poor competitors

Molecule: C[C@H](CNc1ccc([N+](=O)[O-])c2nonc12)[C@H]1CC[C@H]2[C@@H]3CC=C4C[C@@H](O)CC[C@]4(C)[C@H]3CC[C@]12C [NBD-cholesterol, 22-NBD-cholesterol]
- Kd [4]: < 100 nM

Molecule: CC(C)CCC[C@@H](C)[C@H]1CC[C@H]2[C@@H]3CC=C4[C@@H](O)[C@@H](O)CC[C@]4(C)[C@H]3CC[C@]12C [4β-hydroxycholesterol]
- inhibition of binding of NBD-cholesterol to the ASTER domain from Aster-B [1]: comparatively poor competitors

Molecule: O=C(O)Cc1cccc(OCCCN(Cc2cccc(C(F)(F)F)c2Cl)CC(c2ccccc2)c2ccccc2)c1 [synthetic LXR agonist, GW3965]
- Gramd1b expression (Gramd1b): induced

Molecule: CC(C)CCC[C@@H](C)[C@H]1CC[C@H]2[C@@H]3[C@@H](O)C=C4C[C@@H](O)CC[C@]4(C)[C@H]3CC[C@]12C [7β-hydroxycholesterol]
- inhibition of binding of NBD-cholesterol to the ASTER domain from Aster-B [1]: comparatively poor competitors
